Experiments:
[1] = biological target: 5-hydroxytryptamine receptor 2B (Homo sapiens, UniProt P41595); format: cell membranes, CHO-K1, Membrane; details: for Ki: read-out: Ki
[2] = biological target: T1, Cysteinyl leukotriene receptor 1 (Homo sapiens, UniProt Q9Y271); format: cell membranes, Membrane; details: cho-k1
T1 sequence (Q9Y271 whole entry): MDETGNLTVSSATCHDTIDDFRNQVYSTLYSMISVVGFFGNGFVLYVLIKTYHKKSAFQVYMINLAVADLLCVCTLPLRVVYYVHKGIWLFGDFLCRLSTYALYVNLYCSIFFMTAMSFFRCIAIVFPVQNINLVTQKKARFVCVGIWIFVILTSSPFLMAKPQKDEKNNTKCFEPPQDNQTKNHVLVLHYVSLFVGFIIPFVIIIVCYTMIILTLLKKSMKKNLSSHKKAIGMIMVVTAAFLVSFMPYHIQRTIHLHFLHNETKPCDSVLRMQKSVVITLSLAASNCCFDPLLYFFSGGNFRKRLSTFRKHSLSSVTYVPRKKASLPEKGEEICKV

[3] = biological target: Delta-type opioid receptor (Homo sapiens, UniProt P41143); format: cell membranes, Membrane; details: hek293
[4] = biological target: Protein phosphatase 3 catalytic subunit alpha (Homo sapiens, UniProt Q08209); parameters: species or system Escherichia coli;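 note: inhibition of calcineurin (PP2B) enzyme activity, measured with DiFMUP as the substrate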
[5] = biological target: Tyrosine-protein kinase Fyn (Homo sapiens, UniProt P06241); test: biochemical; format: cell-based, Insect cells; details: insect cells;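 note: enzymatic inhibition of Fyn kinase activity measured with Poly(Glu:Tyr) as the phosphorylation substrate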
[6] = biological target: Receptor tyrosine-protein kinase erbB-2 (Homo sapiens, UniProt P04626); test: biochemical; format: cell-based, Insect cells; details: insect cells;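 note: inhibition of HER2 kinase enzyme activity, measured with Poly(Glu:Tyr) as the phosphorylation substrate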
Note: in other assays of this panel Not Active means under 50% inhibition at 10 µM.

Sequence of Delta-type opioid receptor (P41143 whole entry): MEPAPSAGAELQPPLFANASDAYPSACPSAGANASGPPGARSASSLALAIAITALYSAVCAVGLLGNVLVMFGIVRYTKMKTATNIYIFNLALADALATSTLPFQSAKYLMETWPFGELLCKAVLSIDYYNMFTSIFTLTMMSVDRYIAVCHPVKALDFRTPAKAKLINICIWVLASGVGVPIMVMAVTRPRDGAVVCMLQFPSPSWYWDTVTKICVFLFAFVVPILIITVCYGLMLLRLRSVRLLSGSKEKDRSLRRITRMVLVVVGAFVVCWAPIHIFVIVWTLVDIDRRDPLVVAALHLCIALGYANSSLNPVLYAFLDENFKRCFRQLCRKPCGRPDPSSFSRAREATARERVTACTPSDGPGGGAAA
Sequence of Tyrosine-protein kinase Fyn (P06241 whole entry): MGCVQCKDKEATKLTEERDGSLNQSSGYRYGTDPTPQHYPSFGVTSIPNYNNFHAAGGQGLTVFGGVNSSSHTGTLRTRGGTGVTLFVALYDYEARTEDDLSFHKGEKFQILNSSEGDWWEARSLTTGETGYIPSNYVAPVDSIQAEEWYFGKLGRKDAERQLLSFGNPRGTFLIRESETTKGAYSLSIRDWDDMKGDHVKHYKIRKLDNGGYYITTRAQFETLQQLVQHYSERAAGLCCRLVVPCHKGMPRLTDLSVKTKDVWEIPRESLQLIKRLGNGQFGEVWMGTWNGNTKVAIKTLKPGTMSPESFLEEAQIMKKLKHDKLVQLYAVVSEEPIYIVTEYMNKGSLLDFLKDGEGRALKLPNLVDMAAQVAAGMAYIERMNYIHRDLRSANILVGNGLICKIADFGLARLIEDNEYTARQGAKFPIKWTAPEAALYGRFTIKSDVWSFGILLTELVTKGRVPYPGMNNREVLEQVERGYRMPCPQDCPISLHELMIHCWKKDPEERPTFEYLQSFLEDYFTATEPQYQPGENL
Sequence of 5-hydroxytryptamine receptor 2B (P41595 whole entry): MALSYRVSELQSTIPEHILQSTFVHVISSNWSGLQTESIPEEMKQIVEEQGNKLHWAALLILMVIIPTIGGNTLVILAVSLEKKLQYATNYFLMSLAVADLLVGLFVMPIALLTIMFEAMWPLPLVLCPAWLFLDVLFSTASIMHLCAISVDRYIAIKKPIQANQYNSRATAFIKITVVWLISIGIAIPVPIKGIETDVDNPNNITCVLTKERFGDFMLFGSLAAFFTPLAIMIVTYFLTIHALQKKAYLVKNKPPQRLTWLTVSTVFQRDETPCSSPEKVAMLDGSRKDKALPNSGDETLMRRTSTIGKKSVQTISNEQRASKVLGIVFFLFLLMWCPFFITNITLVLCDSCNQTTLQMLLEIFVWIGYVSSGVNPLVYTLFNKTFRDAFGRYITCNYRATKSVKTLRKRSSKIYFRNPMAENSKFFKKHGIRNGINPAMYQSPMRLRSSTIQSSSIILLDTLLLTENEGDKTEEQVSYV
Sequence of Receptor tyrosine-protein kinase erbB-2 (P04626 whole entry): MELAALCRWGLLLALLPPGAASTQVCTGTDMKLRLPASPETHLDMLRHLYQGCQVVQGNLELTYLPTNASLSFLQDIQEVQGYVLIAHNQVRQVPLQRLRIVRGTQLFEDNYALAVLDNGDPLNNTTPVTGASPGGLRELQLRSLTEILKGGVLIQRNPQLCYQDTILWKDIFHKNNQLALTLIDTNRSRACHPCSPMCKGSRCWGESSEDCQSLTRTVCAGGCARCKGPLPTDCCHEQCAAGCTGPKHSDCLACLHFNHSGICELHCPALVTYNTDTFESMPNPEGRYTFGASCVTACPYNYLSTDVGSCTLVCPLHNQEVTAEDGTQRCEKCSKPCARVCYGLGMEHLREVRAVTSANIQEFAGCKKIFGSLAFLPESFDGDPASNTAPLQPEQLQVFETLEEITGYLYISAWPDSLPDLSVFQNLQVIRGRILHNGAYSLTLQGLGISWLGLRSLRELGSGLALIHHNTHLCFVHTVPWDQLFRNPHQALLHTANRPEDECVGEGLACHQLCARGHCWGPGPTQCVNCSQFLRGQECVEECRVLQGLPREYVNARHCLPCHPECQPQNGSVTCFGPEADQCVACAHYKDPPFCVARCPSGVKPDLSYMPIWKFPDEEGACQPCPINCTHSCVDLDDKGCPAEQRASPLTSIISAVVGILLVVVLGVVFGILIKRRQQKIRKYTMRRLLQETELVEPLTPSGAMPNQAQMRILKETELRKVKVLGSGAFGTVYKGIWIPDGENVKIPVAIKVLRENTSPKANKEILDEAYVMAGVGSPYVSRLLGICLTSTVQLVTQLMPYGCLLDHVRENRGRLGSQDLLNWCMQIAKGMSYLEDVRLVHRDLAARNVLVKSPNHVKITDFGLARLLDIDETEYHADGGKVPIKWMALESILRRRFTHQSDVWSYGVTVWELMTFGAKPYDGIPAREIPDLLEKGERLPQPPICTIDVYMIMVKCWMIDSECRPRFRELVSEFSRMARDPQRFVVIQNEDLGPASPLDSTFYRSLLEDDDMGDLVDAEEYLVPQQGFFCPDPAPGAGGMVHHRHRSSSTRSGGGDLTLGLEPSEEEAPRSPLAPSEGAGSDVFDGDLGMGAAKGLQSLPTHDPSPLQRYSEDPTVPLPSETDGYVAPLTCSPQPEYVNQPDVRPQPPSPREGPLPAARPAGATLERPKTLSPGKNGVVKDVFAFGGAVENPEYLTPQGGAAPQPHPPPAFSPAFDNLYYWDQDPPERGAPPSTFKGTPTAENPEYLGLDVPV

SMILES	IC50 ([1]; read-out: IC50)	Ki [1]	IC50 [2]	IC50 [3]	IC50 [4]	IC50 [5]	IC50 [6]	IC50 ([1]; cho-k1)
O=C(c1ccccc1C(F)(F)F)N1CCC(Cc2ccccc2)CC1	1550 nM	986 nM	Not Active	Not Active	Not Active	Not Active	Not Active	
O=C/C=C/c1ccccc1			Not Active	Not Active	Not Active	Not Active	Not Active	Not Active
Nc1ccc2c3c(cccc13)C(=O)NC2=O			Not Active	Not Active	Not Active	Not Active	Not Active	Not Active
COc1ccc(C(=O)N2CCCC2=O)cc1			Not Active	Not Active	Not Active	Not Active	Not Active	Not Active
O=c1cnn([C@@H]2O[C@H](CO)[C@@H](O)[C@H]2O)c(=O)[nH]1 [6-AZAURIDINE]			Not Active	Not Active	Not Active	Not Active	Not Active	Not Active
CC[C@H](C)[C@H]1O[C@]2(C=C[C@@H]1C)C[C@@H]1C[C@@H](C/C=C(\C)[C@@H](O[C@H]3C[C@H](OC)[C@@H](O[C@H]4C[C@H](OC)[C@@H](O)[C@H](C)O4)[C@H](C)O3)[C@@H](C)/C=C/C=C3\CO[C@@H]4[C@H](O)C(C)=C[C@@H](C(=O)O1)[C@]34O)O2.CO[C@H]1C[C@H](O[C@H]2[C@H](C)O[C@@H](O[C@@H]3/C(C)=C/C[C@@H]4C[C@@H](C[C@]5(C=C[C@H](C)[C@@H](C(C)C)O5)O4)OC(=O)[C@@H]4C=C(C)[C@@H](O)[C@H]5OC/C(=C\C=C\[C@@H]3C)[C@]54O)C[C@@H]2OC)O[C@@H](C)[C@@H]1O [ABAMECTIN]			Not Active	Not Active	Not Active	Not Active	Not Active	Not Active
NCCCC(O)(P(=O)(O)O)P(=O)(O)O [ALENDRONIC ACID]			Not Active	Not Active	Not Active	Not Active	Not Active	Not Active
Cc1nnc2n1-c1ccc(Cl)cc1C(c1ccccc1)=NC2 [ALPRAZOLAM]			Not Active	Not Active	Not Active	Not Active	Not Active	Not Active
Cn1c(=O)c2[nH]cnc2n(C)c1=O.Cn1c(=O)c2[nH]cnc2n(C)c1=O.NCCN [AMINOPHYLLINE]			Not Active	Not Active	Not Active	Not Active	Not Active	Not Active
CCC1(CCC(C)C)C(=O)NC(=O)NC1=O [AMOBARBITAL]			Not Active	Not Active	Not Active	Not Active	Not Active	Not Active
CC1(C)S[C@@H]2[C@H](NC(=O)[C@H](N)c3ccccc3)C(=O)N2[C@H]1C(=O)O [AMPICILLIN]			Not Active	Not Active	Not Active	Not Active	Not Active	Not Active
COc1ccc(C2C(=O)c3ccccc3C2=O)cc1 [ANISINDIONE]			Not Active	Not Active	Not Active	Not Active	Not Active	Not Active
O=C1O[C@H]([C@@H](O)CO)C(O)=C1O [ASCORBIC ACID]			Not Active	Not Active	Not Active	Not Active	Not Active	Not Active
CN1[C@@H]2CC[C@H]1C[C@@H](OC(=O)C(CO)c1ccccc1)C2 (some centres undefined) [ATROPINE]			Not Active	Not Active	Not Active	Not Active	Not Active	Not Active
CC(C(=O)O)c1ccc2oc(-c3ccc(Cl)cc3)nc2c1 (centres undefined) [BENOXAPROFEN]			Not Active	Not Active	Not Active	Not Active	Not Active	Not Active
COc1ccc2cc3[n+](cc2c1OC)CCc1cc2c(cc1-3)OCO2.[Cl-] [BERBERINE CHLORIDE]	3440 nM	2190 nM	Not Active	Not Active	Not Active	Not Active	Not Active	
O=C(O)CCNC(=O)c1ccccc1 [BETAMIPRON]			Not Active	Not Active	Not Active	Not Active	Not Active	Not Active
